Laboratory results published in publication PMC12373846, “Hemoglobin as a pseudoperoxidase and drug target for oxidative stress-related diseases” (Signal Transduction and Targeted Therapy, 2025).

How the values were obtained:
ZAP70 = target: T1, ZAP70 (Homo sapiens, UniProt P43403); experiment: KINOMEscan; assay type: binding; settings: 10000 nM; read-out: Percent Control
T1 construct: purchased DiscoverX KINOMEscan scanEDGE; Eurofins Cerep SafetyScreen87
Procedure: (§1) The possibility of KDS12025 on kinase off-target, the KINOMEscan panel of scanEDGE assay was conducted in DiscoverX (CA, USA) using a site-directed competition binding with the test compounds. The assay results are given in Supplementary Table 4 and experimental information is available on the DiscoverX web page (www.discoverx.com). Moreover, the Delta SafetyScreen87 panel assay was conducted in Eurofins Discovery (Cerep, France). The assay results are given in Supplementary Table 5 and experimental information is available on the DiscoverX web page (https://www.eurofinsdiscoveryservices.com).

IKK-beta = target: T2, IKK-beta (Homo sapiens, UniProt O14920); experiment: KINOMEscan; assay type: binding; settings: 10000 nM; read-out: Percent Control
T2 construct: purchased DiscoverX KINOMEscan scanEDGE; Eurofins Cerep SafetyScreen87
Procedure: as §1

FGFR3 = target: T3, FGFR3 (Homo sapiens, UniProt P22607); experiment: KINOMEscan; assay type: binding; settings: 10000 nM; read-out: Percent Control
T3 construct: purchased DiscoverX KINOMEscan scanEDGE; Eurofins Cerep SafetyScreen87
Procedure: as §1

BRAF(V600E) = target: T4, BRAF(V600E) (Homo sapiens, UniProt P15056, V600E); experiment: KINOMEscan; assay type: binding; settings: 10000 nM; read-out: Percent Control
T4 construct: purchased DiscoverX KINOMEscan scanEDGE; Eurofins Cerep SafetyScreen87
Procedure: as §1

TGFBR1 = target: T5, TGFBR1 (Homo sapiens, UniProt P36897); experiment: KINOMEscan; assay type: binding; settings: 10000 nM; read-out: Percent Control
T5 construct: purchased DiscoverX KINOMEscan scanEDGE; Eurofins Cerep SafetyScreen87
Procedure: as §1

RET = target: T6, RET (Homo sapiens, UniProt P07949); experiment: KINOMEscan; assay type: binding; settings: 10000 nM; read-out: Percent Control
T6 construct: purchased DiscoverX KINOMEscan scanEDGE; Eurofins Cerep SafetyScreen87
Procedure: as §1

JNK3 = target: T7, JNK3 (Homo sapiens, UniProt P53779); experiment: KINOMEscan; assay type: binding; settings: 10000 nM; read-out: Percent Control
T7 construct: purchased DiscoverX KINOMEscan scanEDGE; Eurofins Cerep SafetyScreen87
Procedure: as §1

JNK1 = target: T8, JNK1 (Homo sapiens, UniProt P45983); experiment: KINOMEscan; assay type: binding; settings: 10000 nM; read-out: Percent Control
T8 construct: purchased DiscoverX KINOMEscan scanEDGE; Eurofins Cerep SafetyScreen87
Procedure: as §1

AURKA = target: T9, AURKA (Homo sapiens, UniProt O14965); experiment: KINOMEscan; assay type: binding; settings: 10000 nM; read-out: Percent Control
T9 construct: purchased DiscoverX KINOMEscan scanEDGE; Eurofins Cerep SafetyScreen87
Procedure: as §1

[1] = target: T10, JAK3(JH1domain-catalytic) (Homo sapiens, UniProt P52333); experiment: KINOMEscan; assay type: binding; settings: 10000 nM; read-out: Percent Control
T10 construct: JAK3(JH1domain-catalytic); purchased DiscoverX KINOMEscan scanEDGE; Eurofins Cerep SafetyScreen87
Procedure: as §1

EGFR = target: T11, EGFR (Homo sapiens, UniProt P00533); experiment: KINOMEscan; assay type: binding; settings: 10000 nM; read-out: Percent Control
T11 construct: purchased DiscoverX KINOMEscan scanEDGE; Eurofins Cerep SafetyScreen87
Procedure: as §1

TRKA = target: T12, TRKA (Homo sapiens, UniProt P04629); experiment: KINOMEscan; assay type: binding; settings: 10000 nM; read-out: Percent Control
T12 construct: purchased DiscoverX KINOMEscan scanEDGE; Eurofins Cerep SafetyScreen87
Procedure: as §1

BRAF = target: T13, BRAF (Homo sapiens, UniProt P15056); experiment: KINOMEscan; assay type: binding; settings: 10000 nM; read-out: Percent Control
T13 construct: purchased DiscoverX KINOMEscan scanEDGE; Eurofins Cerep SafetyScreen87
Procedure: as §1

GSK3B = target: T14, GSK3B (Homo sapiens, UniProt P49841); experiment: KINOMEscan; assay type: binding; settings: 10000 nM; read-out: Percent Control
T14 construct: purchased DiscoverX KINOMEscan scanEDGE; Eurofins Cerep SafetyScreen87
Procedure: as §1

JNK2 = target: T15, JNK2 (Homo sapiens, UniProt P45984); experiment: KINOMEscan; assay type: binding; settings: 10000 nM; read-out: Percent Control
T15 construct: purchased DiscoverX KINOMEscan scanEDGE; Eurofins Cerep SafetyScreen87
Procedure: as §1

BTK = target: T16, BTK (Homo sapiens, UniProt Q06187); experiment: KINOMEscan; assay type: binding; settings: 10000 nM; read-out: Percent Control
T16 construct: purchased DiscoverX KINOMEscan scanEDGE; Eurofins Cerep SafetyScreen87
Procedure: as §1

ACVR1B = target: T17, ACVR1B (Homo sapiens, UniProt P36896); experiment: KINOMEscan; assay type: binding; settings: 10000 nM; read-out: Percent Control
T17 construct: purchased DiscoverX KINOMEscan scanEDGE; Eurofins Cerep SafetyScreen87
Procedure: as §1

PAK2 = target: T18, PAK2 (Homo sapiens, UniProt Q13177); experiment: KINOMEscan; assay type: binding; settings: 10000 nM; read-out: Percent Control
T18 construct: purchased DiscoverX KINOMEscan scanEDGE; Eurofins Cerep SafetyScreen87
Procedure: as §1

ABL1-phosphorylated = target: T19, ABL1-phosphorylated (Homo sapiens, UniProt P00519); experiment: KINOMEscan; assay type: binding; settings: 10000 nM; read-out: Percent Control
T19 construct: purchased DiscoverX KINOMEscan scanEDGE; Eurofins Cerep SafetyScreen87
Procedure: as §1

APP/PS1 mice = experiment: Hippocampal slice electrophysiology, APP/PS1 mice; assay type: in vivo, mouse; settings: for tonic GABA current, granule cells: Fig. S10k; for sIPSC amplitude: Fig. S10l; for sIPSC frequency: Fig. S10m
Procedure: The mice were deeply anesthetized with 3% isoflurane followed by decapitation. The brain was quickly excised from the skull and submerged in a chilled cutting solution that contained 234 mM sucrose, 24 mM NaHCO3, 11 mM d(+)-glucose, 10 mM MgSO4, 2.5 mM KCl, […], and 0.5 mM CaCl2. Transverse hippocampi (300 µm thick) were prepared with a vibrating microtome (PRO7N; DSK) and transferred to an artificial cerebrospinal fluid (aCSF) solution that contained 130 mM NaCl, 24 mM NaHCO3, 1.25 mM NaH2PO4, 3.5 mM KCl, 1.5 mM CaCl2, 1.5 mM MgCl2, and 10 mM d(+)-glucose, pH 7.4. The slices were incubated at RT for at least 1 h before recording. All the solutions were saturated with 95% O2 and 5% CO2.
For recording of tonic GABA currents, slices were transferred to a recording chamber that was mounted on an upright Zeiss microscope and continuously perfused with aCSF solution. The slice was viewed with a 60× water immersion objective (numerical aperture = […]) with infrared differential interference contrast optics. […] Cellular morphology was visualized by a CMOS camera (Hamamatsu Photonics, Japan) and Imaging Workbench software (INDEC Biosystems). Whole-cell patch recordings were made from […] DG granule cells of the hippocampus. The holding potential was -70 mV. The pipette resistance was typically 6–8 MΩ, and the pipette was filled with an internal solution that contained (in mM): 135 CsCl; 4 NaCl; 0.5 CaCl2; 10 HEPES; 5 EGTA; 2 Mg-ATP; 0.5 Na2-GTP; 10 QX-314; pH adjusted to 7.2 with CsOH (278 to 285 mOsmol). The baseline current before the tonic current was measured was recorded with CNQX (20 µM) and D-AP5 (50 µM). The frequency and amplitude of spontaneous inhibitory postsynaptic currents before bicuculline (50 µM) administration were detected and measured via Mini Analysis (Synaptosoft, USA).
Dentate granule cell synaptic responses were elicited at a low frequency of 0.1 Hz by stimulating perforant path fibers. The stimulation was delivered over […] at intensities ranging from 0 to 1000 μA using a constant current isolation unit. A tungsten bipolar electrode was positioned in the molecular layer to stimulate the perforant path fibers. Recordings of the evoked excitatory postsynaptic potentials (EPSPs) […], and the pipette was filled with an internal solution that contained the following (in mM): 120 potassium gluconate; 10 KCl; 1 MgCl2; 0.5 EGTA; 40 HEPES; pH adjusted to 7.2 with KOH. The spiking probability was determined by the number of spikes generated per total stimulation. Electrical signals were digitized and sampled at […] with the Digidata 1550B data acquisition system and the Multiclamp 700B Amplifier (Molecular Devices, USA) via pClamp software.

97 kinases = experiment: KINOMEscan scanEDGE selectivity score; assay type: binding, human; settings: 10000 nM
Procedure: as §1

T9 sequence (O14965 whole entry): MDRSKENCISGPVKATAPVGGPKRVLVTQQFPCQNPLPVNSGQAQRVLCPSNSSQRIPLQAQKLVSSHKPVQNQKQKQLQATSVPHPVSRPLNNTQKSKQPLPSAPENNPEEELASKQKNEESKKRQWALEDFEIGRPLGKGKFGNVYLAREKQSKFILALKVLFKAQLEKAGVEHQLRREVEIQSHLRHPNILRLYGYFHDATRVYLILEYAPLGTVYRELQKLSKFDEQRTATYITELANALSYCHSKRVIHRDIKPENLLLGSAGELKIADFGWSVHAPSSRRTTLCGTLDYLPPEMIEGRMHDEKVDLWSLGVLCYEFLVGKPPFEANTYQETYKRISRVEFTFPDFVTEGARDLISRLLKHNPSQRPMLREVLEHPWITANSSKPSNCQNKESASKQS
T11 sequence (P00533 25-1210): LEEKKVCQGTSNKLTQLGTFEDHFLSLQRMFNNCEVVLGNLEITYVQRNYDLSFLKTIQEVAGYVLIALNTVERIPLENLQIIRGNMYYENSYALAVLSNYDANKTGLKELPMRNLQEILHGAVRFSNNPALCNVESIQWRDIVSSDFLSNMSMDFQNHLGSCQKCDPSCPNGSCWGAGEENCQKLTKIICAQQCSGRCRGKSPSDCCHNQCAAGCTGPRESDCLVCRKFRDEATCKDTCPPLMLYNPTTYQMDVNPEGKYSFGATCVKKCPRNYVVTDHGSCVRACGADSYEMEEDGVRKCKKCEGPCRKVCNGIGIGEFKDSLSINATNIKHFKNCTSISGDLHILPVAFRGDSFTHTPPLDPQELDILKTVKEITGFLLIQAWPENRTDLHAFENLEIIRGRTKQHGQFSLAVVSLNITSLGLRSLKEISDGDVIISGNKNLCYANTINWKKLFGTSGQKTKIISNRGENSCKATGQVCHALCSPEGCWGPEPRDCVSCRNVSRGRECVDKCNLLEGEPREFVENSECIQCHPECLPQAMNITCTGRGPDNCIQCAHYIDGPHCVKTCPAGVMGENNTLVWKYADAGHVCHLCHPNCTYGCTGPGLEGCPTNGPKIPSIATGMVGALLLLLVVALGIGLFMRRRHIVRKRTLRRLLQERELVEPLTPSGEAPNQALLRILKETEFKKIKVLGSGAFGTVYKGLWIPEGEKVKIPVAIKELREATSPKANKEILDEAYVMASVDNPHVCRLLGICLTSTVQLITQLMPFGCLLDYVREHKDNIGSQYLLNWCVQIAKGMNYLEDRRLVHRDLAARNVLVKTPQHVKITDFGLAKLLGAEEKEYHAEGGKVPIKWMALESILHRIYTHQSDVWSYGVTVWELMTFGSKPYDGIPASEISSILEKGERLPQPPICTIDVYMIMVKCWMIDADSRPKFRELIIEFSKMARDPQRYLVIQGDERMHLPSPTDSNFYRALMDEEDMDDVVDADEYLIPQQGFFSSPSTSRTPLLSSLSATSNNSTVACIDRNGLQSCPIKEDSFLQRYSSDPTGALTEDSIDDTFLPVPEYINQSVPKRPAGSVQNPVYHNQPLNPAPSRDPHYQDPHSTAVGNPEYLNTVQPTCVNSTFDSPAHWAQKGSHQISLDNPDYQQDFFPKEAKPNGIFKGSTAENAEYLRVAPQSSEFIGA
T6 sequence (P07949 29-1114): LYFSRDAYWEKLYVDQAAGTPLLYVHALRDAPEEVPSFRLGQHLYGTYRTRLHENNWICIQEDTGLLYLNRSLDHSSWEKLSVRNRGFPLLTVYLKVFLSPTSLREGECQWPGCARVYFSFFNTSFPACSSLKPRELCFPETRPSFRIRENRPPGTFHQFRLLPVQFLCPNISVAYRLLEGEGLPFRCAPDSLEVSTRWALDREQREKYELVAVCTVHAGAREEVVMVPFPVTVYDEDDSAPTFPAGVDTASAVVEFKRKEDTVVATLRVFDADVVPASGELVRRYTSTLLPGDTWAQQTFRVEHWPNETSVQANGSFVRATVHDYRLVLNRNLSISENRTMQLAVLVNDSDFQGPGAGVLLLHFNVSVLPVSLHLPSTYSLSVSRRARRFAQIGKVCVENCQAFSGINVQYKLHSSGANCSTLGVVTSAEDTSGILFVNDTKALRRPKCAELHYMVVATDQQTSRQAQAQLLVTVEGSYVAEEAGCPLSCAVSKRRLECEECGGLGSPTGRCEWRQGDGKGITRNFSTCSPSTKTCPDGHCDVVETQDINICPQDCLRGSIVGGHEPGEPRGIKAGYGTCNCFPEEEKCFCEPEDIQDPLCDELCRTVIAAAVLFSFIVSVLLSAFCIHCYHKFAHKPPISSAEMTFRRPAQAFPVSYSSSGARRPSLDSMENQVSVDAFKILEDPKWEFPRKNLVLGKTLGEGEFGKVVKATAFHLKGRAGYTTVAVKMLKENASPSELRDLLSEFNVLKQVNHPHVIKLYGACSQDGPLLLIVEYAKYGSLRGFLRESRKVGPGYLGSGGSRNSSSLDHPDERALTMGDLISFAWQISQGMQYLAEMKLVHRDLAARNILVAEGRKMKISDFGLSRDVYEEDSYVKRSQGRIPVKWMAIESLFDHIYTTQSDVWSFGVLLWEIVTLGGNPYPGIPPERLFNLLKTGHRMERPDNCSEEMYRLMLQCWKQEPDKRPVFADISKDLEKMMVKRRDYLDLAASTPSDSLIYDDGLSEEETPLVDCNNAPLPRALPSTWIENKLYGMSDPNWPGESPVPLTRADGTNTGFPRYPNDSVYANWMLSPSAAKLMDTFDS
T7 sequence (P53779 whole entry): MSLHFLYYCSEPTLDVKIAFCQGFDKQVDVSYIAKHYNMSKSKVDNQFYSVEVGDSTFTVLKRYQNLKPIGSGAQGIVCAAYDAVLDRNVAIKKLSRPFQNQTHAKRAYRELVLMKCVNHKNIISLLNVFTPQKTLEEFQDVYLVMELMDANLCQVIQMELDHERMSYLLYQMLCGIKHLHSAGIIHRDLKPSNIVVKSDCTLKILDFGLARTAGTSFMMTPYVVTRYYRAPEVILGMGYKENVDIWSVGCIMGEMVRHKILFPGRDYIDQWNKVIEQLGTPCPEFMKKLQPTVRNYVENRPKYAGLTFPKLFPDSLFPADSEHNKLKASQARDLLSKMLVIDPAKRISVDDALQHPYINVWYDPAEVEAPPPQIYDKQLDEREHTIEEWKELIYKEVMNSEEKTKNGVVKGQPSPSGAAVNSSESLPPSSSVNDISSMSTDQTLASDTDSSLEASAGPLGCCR
T18 sequence (Q13177 whole entry): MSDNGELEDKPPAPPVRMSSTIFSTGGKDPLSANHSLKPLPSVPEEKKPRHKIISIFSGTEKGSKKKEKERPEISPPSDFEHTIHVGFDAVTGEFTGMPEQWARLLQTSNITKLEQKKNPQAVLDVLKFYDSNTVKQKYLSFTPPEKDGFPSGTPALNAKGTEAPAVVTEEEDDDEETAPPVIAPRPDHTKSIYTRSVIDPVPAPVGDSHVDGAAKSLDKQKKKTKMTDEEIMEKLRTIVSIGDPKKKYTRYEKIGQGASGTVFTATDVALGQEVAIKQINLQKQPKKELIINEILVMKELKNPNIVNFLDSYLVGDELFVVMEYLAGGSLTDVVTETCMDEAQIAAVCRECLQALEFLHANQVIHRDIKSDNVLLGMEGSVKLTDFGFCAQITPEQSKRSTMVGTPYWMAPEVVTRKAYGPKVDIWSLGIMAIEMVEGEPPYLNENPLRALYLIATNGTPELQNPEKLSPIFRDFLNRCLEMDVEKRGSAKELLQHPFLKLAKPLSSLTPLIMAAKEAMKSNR
T2 sequence (O14920 whole entry): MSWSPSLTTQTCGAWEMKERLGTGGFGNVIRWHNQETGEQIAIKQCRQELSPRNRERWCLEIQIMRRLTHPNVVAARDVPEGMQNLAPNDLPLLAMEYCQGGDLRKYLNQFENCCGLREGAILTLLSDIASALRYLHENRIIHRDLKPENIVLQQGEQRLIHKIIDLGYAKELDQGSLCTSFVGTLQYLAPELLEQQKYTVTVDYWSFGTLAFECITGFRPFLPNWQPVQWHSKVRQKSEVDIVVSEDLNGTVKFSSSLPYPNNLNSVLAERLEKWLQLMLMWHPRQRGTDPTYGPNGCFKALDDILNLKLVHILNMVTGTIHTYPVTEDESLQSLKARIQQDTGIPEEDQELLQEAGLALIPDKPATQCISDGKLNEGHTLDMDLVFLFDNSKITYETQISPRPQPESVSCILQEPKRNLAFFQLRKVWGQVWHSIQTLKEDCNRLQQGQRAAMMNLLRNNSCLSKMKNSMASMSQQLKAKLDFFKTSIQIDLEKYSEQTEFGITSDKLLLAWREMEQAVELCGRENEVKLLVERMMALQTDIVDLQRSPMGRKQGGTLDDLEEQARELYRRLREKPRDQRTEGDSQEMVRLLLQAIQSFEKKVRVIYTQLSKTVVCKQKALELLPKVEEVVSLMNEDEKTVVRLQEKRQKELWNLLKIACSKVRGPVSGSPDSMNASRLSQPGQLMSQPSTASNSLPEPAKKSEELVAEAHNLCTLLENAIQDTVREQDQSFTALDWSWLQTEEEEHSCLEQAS
T17 sequence (P36896 24-505): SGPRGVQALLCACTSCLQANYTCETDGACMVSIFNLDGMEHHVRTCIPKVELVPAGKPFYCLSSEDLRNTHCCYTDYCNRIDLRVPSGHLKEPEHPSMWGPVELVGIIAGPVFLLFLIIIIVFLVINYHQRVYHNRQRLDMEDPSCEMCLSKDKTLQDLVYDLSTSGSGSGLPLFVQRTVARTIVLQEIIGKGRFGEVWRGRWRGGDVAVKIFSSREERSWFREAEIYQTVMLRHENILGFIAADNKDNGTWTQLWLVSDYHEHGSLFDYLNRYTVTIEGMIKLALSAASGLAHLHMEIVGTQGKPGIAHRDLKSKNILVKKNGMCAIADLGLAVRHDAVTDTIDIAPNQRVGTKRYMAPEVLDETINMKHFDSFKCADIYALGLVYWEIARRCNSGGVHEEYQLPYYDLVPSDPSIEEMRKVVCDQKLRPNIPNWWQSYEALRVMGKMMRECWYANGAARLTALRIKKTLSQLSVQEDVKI

SMILES: CNc1ccc(NCCc2ccccc2OC)cc1.Cl [KDS12025, N^1-(2-methoxyphenethyl)-N^4-methylbenzene-1,4-diamine hydrochloride salt]
- remaining binding at 10 µM (ZAP70): 88%
- remaining binding at 10 µM (IKK-beta): 100%
- remaining binding at 10 µM (FGFR3): 91%
- remaining binding at 10 µM (BRAF(V600E)): 100%
- remaining binding at 10 µM (TGFBR1): 96%
- remaining binding at 10 µM (RET): 100%
- remaining binding at 10 µM (JNK3): 68%
- remaining binding at 10 µM (JNK1): 75%
- remaining binding at 10 µM (AURKA): 86%
- remaining binding at 10 µM [1]: 76%
- remaining binding at 10 µM (EGFR): 48%
- remaining binding at 10 µM (TRKA): 100%
- remaining binding at 10 µM (BRAF): 100%
- remaining binding at 10 µM (GSK3B): 95%
- remaining binding at 10 µM (JNK2): 91%
- remaining binding at 10 µM (BTK): 100%
- remaining binding at 10 µM (ACVR1B): 100%
- remaining binding at 10 µM (PAK2): 94%
- remaining binding at 10 µM (ABL1-phosphorylated): 100%
- tonic GABA current, granule cells (APP/PS1 mice; 3mpk i.p.): 4.160±0.8926
- sIPSC amplitude (APP/PS1 mice; 3mpk i.p.): 36.09±4.601
- sIPSC frequency (APP/PS1 mice; 3mpk i.p.): 1.355±0.2694
- tonic GABA current, granule cells (APP/PS1 mice; 10mpk i.p.): 3.113±0.7279
- sIPSC amplitude (APP/PS1 mice; 10mpk i.p.): 26.02±1.734
- sIPSC frequency (APP/PS1 mice; 10mpk i.p.): 1.177±0.5985
- spike probability across stimulation intensities (APP/PS1 mice; 100–1000 μA, 3 mg/kg/day ad libitum, Fig. 5l left): 0.7455±0.1216
- Number of Hits, S(1) (97 kinases): 0
- Number of Hits, S(10) (97 kinases): 0
- Number of Hits, S(35) (97 kinases): 0
